Measurements published in US20140335050A1, “METHODS, COMPOSITIONS, AND KITS FOR THE TREATMENT OF CANCER” (The General Hospital Corporation, priority 2011, published 2014).

What was measured:
Assay type in all cases: cell-based, human
[1] = test system: Melan-A/MART-1 promoter EGFP reporter cell line; assay: Melan-A/MART-1 promoter-driven EGFP reporter cell line, secondary screen of hits (FIG. 6); details: over a dose range (FIG. 6)
Excerpt: FIG. 6 is a series of graphs showing EGFP detection of in cells treated with the indicated hits showing ability to upregulate a cell line containing a Melan-A/MART-1 promoter-driven EGFP reporter. Note that the x-axes (drug concentrations) and y-axes (EGFP fluorescent measurement) cover different ranges to best indicate the activities of individual compounds. Data from a single determination, representative of at least three confirmatory experiments, is shown.
The EGFP reporter driven by the Melan-A/MART-1 promoter represents one such orthogonal assay because it evaluates directly the effect of the compounds on Melan-A/MART-1 promoter activity independent of Melan-A/MART-1 protein expression. Compounds passing the other secondary screens, but failing this one, may affect antigen presentation by other mechanisms such as increasing the efficiency of antigen processing, enhancing MHC Class I levels, or by stabilizing the antigen/MHC complex.
As for the primary screen, 17-AAG and aphidicolin, had the largest impact on EGFP stimulation, inducing 3-fold and 5-fold increases respectively. […]
(§1) Cells were fixed with 1% formaldehyde, permeabilized with 0.1% saponin, stained with monoclonal antibodies to melanocyte antigens. […] The level of EGFP was determined by flow cytometry of unfixed cells that were washed and resuspended in 1×PBS.

MU89 melanoma cells = assay: Tumor cell/T cell co-culture IL-2 ELISA (Melan-A/MART-1 specific TCR Jurkat line J-TCR-M1 as responder); details: for Fold increase (IL-2 relative to untreated controls), hits from pilot screen: about 10 μM, 72 hours treatment, then 24 hours co-culture
Excerpt: The assay relies on the use of an antigen-specific responder T cell line. […] The chosen TCR reacts specifically to a Melan-A/MART-1 decapeptide (26[…]35) presented by HLA-A2, with appropriate triggering of T cell activation. We then used a lentiviral vector system for transduction of this specific TCR into the J.RT3-T3.5 T cell line, a Jurkat cell derivative which fails to express endogenous surface TCR through a mutation in its beta chain.
We evaluated several candidate melanoma cell lines for the ability to stimulate the J-TCR-M1 cell line. Levels of Melan-A/MART-1 (determined by intracellular staining and flow cytometry) and corresponding levels of induced IL-2 (determined by coculture with J-TCR-M1 and IL-2 ELISA) were tested for different melanoma cell lines.
The 480 compounds were tested in six parallel 96 well plates. The first two columns (16 wells) of each plate were used for standards (8 wells), untreated controls (4 wells), and positive controls (4 wells). The other ten columns (80 wells) were used for testing compounds in separate wells. A100 μl aliquot containing 5×10^4 MU89 cells was added to wells that contained 0.1 μl of each test drug diluted in 50 μl of RPMI media. The plates were incubated with drug for 72 hours at 37° C. in a humidified incubator with 5% CO2. After 72 hours, each well received 2.5×10^4J-TCR-M1 cells in 50 μl medium, and then incubated a further 24 hours. At the conclusion of the 24 hour co-culture period, each plate was centrifuged to pellet the cells and 100 μl supernatant fluid was collected from each well and plated in a parallel 96 well flat bottom well for IL-2 ELISA assay.
Melanoma cells were treated with hits from the primary screen for three days prior to counting and plating for the coculture assay (cells were washed and resuspended in fresh medium that no longer contained the treatment agents during the co-culture). A100 μl volume of 5×10^5 cells/ml tumor cells were mixed with 50 μl of […] T cells in a 96-well V-bottom plate and incubated overnight (16-24 hours). Plates were centrifuged to pellet the cells and 100 μl of supernatant fluid was removed from each well for cytokine assay. To assess antigen-specific T cell responses, a final concentration of 3.33 μg/ml Melan-A/MART-1 peptide (26[…]35 (A27L from wild type)) was added to the co-culture.
(§2) The protocol for evaluation of the cytokine IL-2 was performed using a the BD OptEAI kit, human IL-2 ELISA set from BD Biosciences (San Diego, Calif.) following the manufacturer's recommendations. The absorbance 450 nm was read in a BioRad 3550 plate reader. A standard curve using known concentrations of IL-2 (from 500 to 8 pg/ml) was included in each ELISA plate. IL-2 levels for experimental samples (pg/ml) were calculated from the standard curve.
100 μl of 5×10^5 tumor cells/ml were mixed with 50 μl of T cells (at 5×10^5 cells/ml) in a 96-well V-bottom plate and incubated overnight (16-24 hours). Plates were centrifuged to pellet the cells and 120 μl of supernatant fluid was removed from each well for cytokine assay. To assess antigen-specific T cell responses, 3.33 μg/ml Melan-A/MART-1 peptide was added to the co-culture.
The protocols for evaluation of either IL-2 or IFN-gamma were similar, following the manufacturer's recommendations. A standard curve using known concentrations of each cytokine was included in each ELISA experiment. ELISA plates were coated with capture antibody and then washed with 1×PBS 0.5% Tween-20. Wells were blocked with 1×PBS 1% FBS for 1 hour and rewashed.

[2] = test system: MU89 MART::EGFP cell line; assay: Melan-A/MART-1 promoter-driven EGFP reporter, kinetics by flow cytometry; details: MU89 MART::EGFP (FIG. 11)
Protocol: FIG. 11 is a set of four graphs showing the kinetics of Melan-A/MART-1 increase. […] The same number of cells per well were plated in each well of a 24 well plate and drug was added on day zero. Each day cells were collected and assayed for that time point. Control untreated cells are shown for comparison. The data are from one representative experiment.
A kinetic analysis was performed to determine the effect of Hsp90 inhibition on Melan-A/MART-1 promoter activity over time. […] Reporter activity increases steadily for the first 72 hours of Hsp90 inhibition, and then plateaus. The need for continued presence of Hsp90 inhibitors in order for them to be effective (i.e. whether the drug can be removed after short exposure, or whether it must it be continually present) was assessed. […] To achieve full signal enhancement, it is desirable to retain the drug for at least 48 hours, after which the effect remains constant or slightly decreases.
The generation and application of EGFP reporter cells has been previously described. Briefly, a 1200 base pair human genomic DNA segment encompassing the Melan-A/MART-1 promoter was used to generate a construct driving expression of the EGFP reporter gene. Stable transfectants with this construct were generated in the low-antigen cell line A375 and the high-antigen line MM96L+ and MU89. The EGFP expression response patterns of these cells to IFN-beta and MAP kinase inhibitors recapitulates the antigen up-regulation of endogenous Melan-A/MART-1 induced by these agents.
Intracellular staining and flow cytometric analyses of cytoplasmic Melan-A/MART-1, and gp100 expression were performed as described previously. Cells were fixed with 1% formaldehyde, permeabilized with 0.1% saponin, stained with monoclonal antibodies to melanocyte antigens. Antibodies were obtained with specificity for: Melan-A/MART-1 from Vector Labs (Burlingame, Calif.); gp100/HMB45 from DakoCytomation (Carpinteria, Calif.) and then visualized with goat anti-mouse FITC-conjugated secondary antibody from Invitrogen (Frederick, Md.). The level of EGFP was determined by flow cytometry of unfixed cells washed and resuspended in 1×PBS. Surface staining of MHC Class I was carried out using the antibody W6/32 on cells harvested with Cell Stripper from MediaTech Inc. (Manassas, Va.) and carried out on ice.

melanomas and gliomas = assay: Intracellular staining for Melan-A/MART-1 and gp100, melanomas and gliomas exposed to hits (Table 10); details: in most cell lines; three days (Table 10)
Protocol: FIG. 7 is a series of graphs showing intracellular staining and flow histograms used to generate data for Table 10. All cells were stained with an antibody to gp100. Thin line represents untreated cells, bold line represents cells treated for three days with 17-AAG (1 μg/ml). Numbers represent geometric mean of flow histograms.
A further orthogonal secondary screen is the measurement of Melan-A/MART-1 and gp100 in additional melanoma cell lines and gliomas in response to the primary hit candidates. […] If the compounds of interest increase antigen levels in multiple melanoma cell lines and two gliomas, the effects of the compounds are clearly not limited to a single melanoma cell type.
As for the primary screen, 17-AAG and aphidicolin, had the largest impact on EGFP stimulation, inducing 3-fold and 5-fold increases respectively. Four additional compounds: damnacanthal, flunarizine, OBAA, and dantrolene stimulated EGFP more than 2-fold. We then tested the ability of the hit compounds to induce antigen increases in a more diverse set of tumors including melanomas and gliomas. […]
as §1

J-TCR-M1 T cells = assay: Secondary screen for nonspecific T cell activation (T cells alone, IL-2); details: 2.5×10^4 T cells alone, no tumor; PMA 2 μg/ml
Protocol: FIG. 4 is a graph showing IL-2 expression from the secondary screen for nonspecific T cell activation. Bars indicate the incubation of 2.5×10^4 T cells alone with the indicated compounds. The concentration of compounds used in this assay are; 17-AAG 10 μg/ml, OBAA 25 μg/ml, aphidicolin 4 μg/ml, flunarizine 8 μg/ml, dantrolene 2 μg/ml, glyburide 4 μg/ml, and PMA 2 μg/ml.
Secondary screens were carried out on the 8 primary hits, to further test performance robustness, specificity, and certain functional properties. Initially, for any previously-described compound, extensive literature searches must be performed to look for all relevant known bioactivities, especially towards melanocytic cells or T cells. […] Testing for non-specific T cell stimulation will identify false positives, and compounds failing this test will not be further evaluated in any other secondary screens. […]
as §2, with “A standard curve using known concentrations of IL-2 (from 500 to 8 pg/ml) was included in each ELISA plate.” left out

SMILES	EGFP stimulation (Melan-A/MART-1 promoter reporter) [1]	Outcome in the primary co-culture IL-2 screen (hit or not) (MU89 melanoma cells; ICCB Known Bioactives Library, 10 μM)	Fold increase (IL-2 relative to untreated controls), hits from pilot screen (MU89 melanoma cells)	IL-2 stimulation in repeat of the tumor T cell co-culture IL-2 ELISA (MU89 melanoma cells; hits re-tested over a wider dose range (FIG. 5))	Time at which the fluorescent reporter signal is significantly enhanced (as early as) [2]	Protein increase (Melan-A/MART-1, gp100 intracellular staining) (melanomas and gliomas)	IL-2 expression of T cells incubated alone with compound (nonspecific T cell activation) (J-TCR-M1 T cells)
C=CCNC1=C2C[C@@H](C)C[C@H](OC)[C@H](O)[C@@H](C)/C=C(\C)[C@H](OC(N)=O)[C@@H](OC)/C=C\C=C(/C)C(=O)NC(=CC1=O)C2=O [17-AAG, 17-allylaminogeldanamycin]	3 fold	identified as a hit	7.7 fold	about 7 fold	2 days	inducing high levels of protein increases at low concentrations	–
CCCCCCCCCCCCCC(=O)O[C@@H]1[C@@H](C)[C@@]2(O)[C@@H](C=C(CO)C[C@]3(O)C(=O)C(C)=C[C@@H]23)[C@@H]2C(C)(C)[C@]12OC(C)=O [PMA, phorbol-12-myristate-13 acetate]	–	–	1.9 fold	–	–	–	caused T cells stimulation in the absence of tumor
